Test results reported in patent US8013153B2, “Substituted pyrimidine kinase inhibitors” (Janssen Pharmaceutica, N.V., priority 2006, dated 2011).
Where two headings read alike, the source gives them in different places.

Legend:
[1] = molecular target: T1, HER2 cytoplasmic domain (Homo sapiens, UniProt P04626); assay: HER2 Kinase Screening Assay; type: biochemical; details: > means no observed 50% inhibition at the indicated test concentration; ~ means approximately 50% inhibition at that concentration
T1 construct: polyhistidine (N)
T1 sequence (P04626 676-1255 limits assumed): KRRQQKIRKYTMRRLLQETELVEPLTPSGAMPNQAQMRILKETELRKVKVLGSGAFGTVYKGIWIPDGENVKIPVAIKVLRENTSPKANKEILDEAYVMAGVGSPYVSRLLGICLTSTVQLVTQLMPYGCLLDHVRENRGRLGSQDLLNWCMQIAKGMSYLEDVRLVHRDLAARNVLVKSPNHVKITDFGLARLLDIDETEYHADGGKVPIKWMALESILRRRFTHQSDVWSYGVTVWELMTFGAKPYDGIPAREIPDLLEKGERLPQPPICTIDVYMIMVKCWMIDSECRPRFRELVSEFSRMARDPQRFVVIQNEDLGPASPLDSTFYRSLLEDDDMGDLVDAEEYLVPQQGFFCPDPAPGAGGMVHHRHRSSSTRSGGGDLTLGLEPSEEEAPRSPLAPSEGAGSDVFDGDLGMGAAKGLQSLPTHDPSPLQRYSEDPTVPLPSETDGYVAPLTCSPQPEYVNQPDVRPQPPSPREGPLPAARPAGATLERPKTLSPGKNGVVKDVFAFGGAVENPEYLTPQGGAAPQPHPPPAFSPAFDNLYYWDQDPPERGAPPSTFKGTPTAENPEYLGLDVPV
Method: (§1) A kinase reaction mixture was prepared containing 50 mM Tris-HCl pH=8, 10 mM MgCl2, 0.1 mM Na3PO4, 1 mM DTT, 10 μM ATP, 0.025 μM biotinylated histone-H1 peptide substrate and 0.2 μCuries per well ^33P-γ-ATP (2000-3000 Ci/mmol). 70 μL of the kinase reaction mixture was dispensed into the well of a streptavidin coated FlashPlate™ (Cat. # SMP103, NEN, Boston, Mass.). Then 1 μL of test compound stock in 100% DMSO was added to the wells resulting in a final concentration of 1% DMSO in the reaction with a 100 μL final reaction volume.
(§2) The CDK1:Cyclin-B protein was diluted in 50 mM Tris-HCl pH=8.0, 0.1% BSA at a concentration of 1 ng per μL and 30 μL (30 ng enzyme per test well) was added to each well to initiate the reaction. The reaction was incubated for one hour at 30° C. At the end of the 1 hour incubation, the reaction was terminated by aspirating the mixture from the plate and washing the wells twice with PBS containing 100 mM EDTA. The histone-H1 biotinylated peptide substrate became immobilized on the Flashplate™ and the incorporation of ^33P-γ-ATP was measured by reading the plate on a scintillation counter. Inhibition of the enzymatic activity of CDK1 was measured by observing a reduced amount of ^33P-γ-ATP incorporated into the immobilized peptide.
The HER2 kinase assay was carried out using the CDK kinase assay procedure except that the enzyme was replaced with a HER2 construct containing a polyhistidine tag at the N-terminus followed by 24 additional amino acids and the HER2 cytoplasmic domain beginning at amino acid 676 (Accession #M11730) to the end.

[2] = molecular target: T2, CDK1:Cyclin-B (Homo sapiens, UniProt P06493); assay: CDK1 Screening Assay; type: biochemical
T2 construct: purchased New England Biolabs, Beverly, Mass; 6020; host or cells: insect cells
T2 sequence (P06493 whole entry): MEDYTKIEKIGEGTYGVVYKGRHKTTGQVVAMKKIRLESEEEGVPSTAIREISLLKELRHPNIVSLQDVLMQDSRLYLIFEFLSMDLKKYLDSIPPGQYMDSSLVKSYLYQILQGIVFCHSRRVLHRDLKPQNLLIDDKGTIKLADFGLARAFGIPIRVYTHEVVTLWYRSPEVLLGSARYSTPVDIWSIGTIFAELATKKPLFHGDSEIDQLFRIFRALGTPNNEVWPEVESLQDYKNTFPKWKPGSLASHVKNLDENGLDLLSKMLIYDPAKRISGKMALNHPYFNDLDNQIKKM
T2 sequence (P14635 whole entry partner): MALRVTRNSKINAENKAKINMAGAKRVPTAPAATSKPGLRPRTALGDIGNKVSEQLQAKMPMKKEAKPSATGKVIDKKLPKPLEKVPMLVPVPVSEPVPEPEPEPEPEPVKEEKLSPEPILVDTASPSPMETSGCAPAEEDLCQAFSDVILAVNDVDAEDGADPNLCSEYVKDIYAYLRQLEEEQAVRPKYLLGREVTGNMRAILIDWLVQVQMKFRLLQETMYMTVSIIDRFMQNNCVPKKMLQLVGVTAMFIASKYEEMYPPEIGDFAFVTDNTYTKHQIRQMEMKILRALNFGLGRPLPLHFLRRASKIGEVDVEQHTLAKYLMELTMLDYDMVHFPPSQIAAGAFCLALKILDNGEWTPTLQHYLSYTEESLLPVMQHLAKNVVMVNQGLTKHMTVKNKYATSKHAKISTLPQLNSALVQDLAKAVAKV
Method: as §1, §2
The CDK1 used was isolated from insect cells expressing both the human CDK1 catalytic subunit and its positive regulatory subunit cyclin B (New England Biolabs, Beverly, Mass., Cat. #6020).

[3] = molecular target: T3, murine Aurora-A (Mus musculus, UniProt P97477); assay: Aurora-A Screening Assay; type: biochemical
T3 construct: replaced with the full length protein encoding the murine Aurora-A; made in house; host or cells: sf9 insect cells
T3 sequence (P97477 1-395): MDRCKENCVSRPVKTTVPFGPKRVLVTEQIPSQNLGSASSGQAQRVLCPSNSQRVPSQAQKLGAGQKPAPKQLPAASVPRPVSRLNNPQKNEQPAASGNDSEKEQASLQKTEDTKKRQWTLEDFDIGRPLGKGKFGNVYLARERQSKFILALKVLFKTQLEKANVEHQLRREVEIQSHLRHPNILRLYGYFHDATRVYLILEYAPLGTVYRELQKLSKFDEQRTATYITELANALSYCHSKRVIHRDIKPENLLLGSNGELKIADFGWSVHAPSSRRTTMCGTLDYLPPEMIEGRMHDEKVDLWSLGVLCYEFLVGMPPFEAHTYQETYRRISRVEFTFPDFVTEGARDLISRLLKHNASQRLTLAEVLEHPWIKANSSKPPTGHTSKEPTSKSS
Method: as §1, §2
The Aurora-A kinase assay was carried out using the CDK kinase assay procedure except that the enzyme was replaced with the full length protein encoding the murine Aurora-A (Accession #GB BC014711) expressed and purified from sf9 insect cells.

[4] = test system: HeLa cervical adenocarcinoma; assay: Inhibition of in vitro cell proliferation (HeLa); type: cell-based, human; details: Homo sapiens, 14C-thymidine incorporation;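 further: cells exposed to compound for 24 h, then labelled 24 h with methyl 14C-thymidine, with uptake into DNA counted by scintillation against DMSO-only control wells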
[5] = test system: HCT-116 colon carcinoma; assay: Inhibition of in vitro cell proliferation (HCT116); type: cell-based, human; details: Homo sapiens, HCT-116, 14C-thymidine incorporation;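 further: cells exposed to compound for 24 h, then 14C-thymidine added for a further 24 h and its uptake into DNA counted by scintillation, DMSO-only wells as control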
[6] = test system: A375 malignant melanoma; assay: Inhibition of in vitro cell proliferation (A375); type: cell-based, human; details: Homo sapiens, A-375, 14C-thymidine incorporation;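 further: cells plated for 24 h, given compound for 24 h, then labelled with 14C-thymidine for another 24 h, with DMSO-only wells as control and counts read by scintillation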
[7] = molecular target: T4, rat VEGF-R2 kinase domain (Rattus norvegicus, UniProt O08775); assay: VEGF-R2 Screening Assay; type: biochemical
T4 construct: amino acids 786-1343 of the rat VEGF-R2 kinase domain; polyhistidine (N)
T4 sequence (O08775 786-1343): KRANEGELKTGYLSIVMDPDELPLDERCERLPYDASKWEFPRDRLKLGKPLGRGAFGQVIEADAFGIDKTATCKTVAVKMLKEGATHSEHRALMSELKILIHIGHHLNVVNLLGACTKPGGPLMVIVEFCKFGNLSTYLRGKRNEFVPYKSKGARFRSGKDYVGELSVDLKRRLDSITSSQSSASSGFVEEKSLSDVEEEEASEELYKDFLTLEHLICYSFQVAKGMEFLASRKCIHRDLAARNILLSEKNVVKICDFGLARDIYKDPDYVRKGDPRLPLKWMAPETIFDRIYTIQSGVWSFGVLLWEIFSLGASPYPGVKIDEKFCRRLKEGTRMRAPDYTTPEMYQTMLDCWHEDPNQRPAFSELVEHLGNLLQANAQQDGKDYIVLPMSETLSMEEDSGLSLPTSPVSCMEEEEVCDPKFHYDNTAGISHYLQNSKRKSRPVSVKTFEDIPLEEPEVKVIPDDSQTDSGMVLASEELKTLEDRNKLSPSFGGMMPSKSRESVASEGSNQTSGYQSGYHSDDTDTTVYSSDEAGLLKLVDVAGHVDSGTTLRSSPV

[8] = > means no observed 50% inhibition at the indicated test concentration, ~ means approximately 50% inhibition at that concentration, read-out: IC50 VEGF-R2

SMILES	IC50 [1] [µM]	IC50 [2] [µM]	IC50 [3] [µM]	IC50 [4] [µM]	IC50 [5] [µM]	IC50 [6] [µM]	IC50 [7, 8] [µM]	IC50 ([7]; IC50 VEGF-R2) [µM]
CO/N=C/c1c(N)ncnc1Oc1ccc2[nH]c(C)cc2c1 [Cpd 2, 4-amino-6-(2-methyl-1H-indol-5-yloxy)-pyrimidine-5-carbaldehyde O-methyl-oxime]	> 1	> 100	~100	0.389	0.386	0.356	–	–
Cc1cc2c(F)c(Oc3ncnc(N)c3C=NOCCCN(C)C)ccc2[nH]1 [Cpd 17, 4-amino-6-(4-fluoro-2-methyl-1H-indol-5-yloxy)-pyrimidine-5-carbaldehyde O-(3-dimethylamino-propyl)-oxime]	~10	> 100	33.8	–	–	–	–	–
Cc1cc2c(F)c(Oc3ncnc(N)c3C=NOCCCN3CCCCC3)ccc2[nH]1 [Cpd 20, 4-amino-6-(4-fluoro-2-methyl-1H-indol-5-yloxy)-pyrimidine-5-carbaldehyde O-(3-piperidin-1-yl-propyl)-oxime]	1.55	> 100	> 100	0.715	2.78	0.429	0.037	–
Cc1cc2c(F)c(Oc3ncnc(N)c3C=NOCCCN3CCNCC3)ccc2[nH]1 [Cpd 21, 4-amino-6-(4-fluoro-2-methyl-1H-indol-5-yloxy)-pyrimidine-5-carbaldehyde O-(3-piperazin-1-yl-propyl)-oxime]	0.767	> 100	> 10	24.5	68.1	11.2	0.036	–
Cc1cc2c(F)c(Oc3ncnc(N)c3C=NOCCCCN3CCCCC3)ccc2[nH]1 [Cpd 24, 4-amino-6-(4-fluoro-2-methyl-1H-indol-5-yloxy)-pyrimidine-5-carbaldehyde O-(4-piperidin-1-yl-butyl)-oxime]	0.282	> 100	> 100	> 100	> 100	> 100	0.085	–
C=CCON=Cc1c(N)ncnc1Oc1ccc2[nH]c(C)cc2c1F [Cpd 31, 4-amino-6-(4-fluoro-2-methyl-1H-indol-5-yloxy)-pyrimidine-5-carbaldehyde O-allyl-oxime]	> 100	> 100	> 100	0.042	0.04	0.021	–	–
COCCCON=Cc1c(N)ncnc1Oc1ccc2[nH]c(C)cc2c1F [Cpd 33, 4-amino-6-(4-fluoro-2-methyl-1H-indol-5-yloxy)-pyrimidine-5-carbaldehyde O-(3-methoxy-propyl)-oxime]	3.99	> 100	> 10	0.346	0.438	0.3	–	–
CNC(=O)n1c(C)cc2c(F)c(Oc3ncnc(N)c3C=NOC)ccc21 [Cpd 43, 5-[6-amino-5-(methoxyimino-methyl)-pyrimidin-4-yloxy]-4-fluoro-2-methyl-indole-1-carboxylic acid methylamide]	> 10	> 100	> 100	–	–	–	~1	–
CNC(=O)Cc1ccc(Oc2ncnc(N)c2C=NOC)cc1 [Cpd 96, 2-{4-[6-amino-5-(methoxyimino-methyl)-pyrimidin-4-yloxy]-phenyl}-N-methyl-acetamide]	> 100	> 100	> 10	–	–	–	–	19.7
CNC(=O)c1ccc(Oc2ncnc(N)c2C=NOC)cc1 [Cpd 98, 4-[6-amino-5-(methoxyimino-methyl)-pyrimidin-4-yloxy]-N-methyl-benzamide]	> 100	> 100	> 100	–	–	–	–	–
CON=Cc1c(N)ncnc1Oc1ccc(CC(=O)Nc2cccc(F)c2)cc1 [Cpd 100, 2-{4-[6-amino-5-(methoxyimino-methyl)-pyrimidin-4-yloxy]-phenyl}-N-(3-fluoro-phenyl)-acetamide]	2.8	> 100	> 100	–	–	–	–	–
CCNC(=O)Cc1ccc(Oc2ncnc(N)c2C=NOC)cc1 [Cpd 101, 2-{4-[6-amino-5-(methoxyimino-methyl)-pyrimidin-4-yloxy]-phenyl}-N-ethyl-acetamide]	> 100	> 100	> 10	–	–	–	–	–
CCNC(=O)Oc1ccc(Oc2ncnc(N)c2C=NOC)cc1 [Cpd 102, ethyl-carbamic acid 4-[6-amino-5-(methoxyimino-methyl)-pyrimidin-4-yloxy]-phenyl ester]	> 100	> 100	> 10	–	–	–	–	–
CCNC(=O)Nc1ccc(Oc2ncnc(N)c2C=NOCCN2CCOCC2)cc1Cl [Cpd 103, 1-(4-{6-amino-5-[(2-morpholin-4-yl-ethoxyimino)-methyl]-pyrimidin-4-yloxy}-2-chloro-phenyl)-3-ethyl-urea]	> 100	> 100	> 100	–	–	–	0.093	–
CCNC(=O)Nc1ccc(Oc2ncnc(N)c2C=NOCCOC)cc1Cl [Cpd 104, 1-(4-{6-amino-5-[(2-methoxy-ethoxyimino)-methyl]-pyrimidin-4-yloxy}-2-chloro-phenyl)-3-ethyl-urea]	> 100	> 100	> 100	–	–	–	0.041	–
CON=Cc1c(N)ncnc1Oc1ccc(OC(=O)Nc2cccc(Cl)c2)cc1 [Cpd 105, (3-chloro-phenyl)-carbamic acid 4-[6-amino-5-(methoxyimino-methyl)-pyrimidin-4-yloxy]-phenyl ester]	> 100	> 100	> 100	–	–	–	> 100	–
CON=Cc1c(N)ncnc1Oc1cc(OC)cc(OC)c1 [Cpd 106, 4-amino-6-(3,5-dimethoxyphenoxy)-5-pyrimidinecarboxaldehyde O-methyloxime]	> 10	> 100	> 100	–	–	–	> 10	–
CCOC(=O)c1c(C)[nH]c2ccc(Oc3ncnc(N)c3/C=N/OC)cc12 [Cpd 107, 5-[{6-amino-5-[(E)-(methoxyimino)methyl]-4-pyrimidinyl}oxy]-2-methyl-1H-indole-3-carboxylic acid ethyl ester]	> 100	> 100	> 100	–	–	–	> 100	–
CON=Cc1c(N)ncnc1Oc1ccc2c(c1)OCO2 [Cpd 108, 4-amino-6-(1,3-benzodioxol-5-yloxy)-5-pyrimidinecarboxaldehyde O-methyloxime]	> 10	> 100	> 10	–	–	–	3.96	–
CON=Cc1c(N)ncnc1Oc1ccc(F)c(Cl)c1 [Cpd 109, 4-amino-6-(3-chloro-4-fluorophenoxy)-5-pyrimidinecarboxaldehyde O-methyloxime]	> 1	> 100	> 100	–	–	–	> 100	–
CON=Cc1c(N)ncnc1OCc1cccc(F)c1 [Cpd 112, 4-amino-6-[(3-fluorophenyl)methoxy]-5-pyrimidinecarboxaldehyde O-methyloxime]	> 10	–	–	–	–	–	–	–
CO/N=C/c1c(N)ncnc1Oc1ccc2[nH]cc(CCNC(C)=O)c2c1 [Cpd 113, N-[2-{5-[{6-amino-5-[(E)-(methoxyimino)methyl]-4-pyrimidinyl}oxy]-1H-indol-3-yl}ethyl]-acetamide]	> 100	> 100	> 100	–	–	–	> 100	–
CON=Cc1c(N)ncnc1OCc1ccc2ccccc2c1 [Cpd 115, 4-amino-6-(2-naphthalenylmethoxy)-5-pyrimidinecarboxaldehyde O-methyloxime]	–	–	–	–	–	–	> 10	–
